Data reported in US20240182513A1, “SEPARATION OF METAL IONS FROM A SAMPLE USING GLYCOLIPIDS” (ARIZONA BOARD OF REGENTS ON BEHALF OF THE UNIVERSITY OF …, priority 2021, published 2024).

Test: Example 2.2 glycolipid facilitated chemical precipitation: lead
Experimental: Nine different structural variants were selected to examine the effect of the headgroup and number and length of the hydrophobic tail(s) on glycolipids as a chemical precipitant (Table 6). These solutions were made in advance and stored at 4° C. for up to one month and brought to room temperature (˜25° C.) before each experiment.
Each metal (Pb^2+, La^3+, and Mg^2+) was evaluated separately with each of the nine glycolipids. […] The reactions were mixed in the order of nanopure water (≥18 MΩ-cm), glycolipid solution, then metal solution. The metal and glycolipid solutions were continuously stirred as they were aliquoted into the reaction tubes. All experiments were performed in triplicate.
The reaction tubes were rotated overnight (16 to 24 h) and then three samples were collected from each tube to measure metal removal from solution: (1) no further treatment; (2) an additional filtration step; and (3) an additional centrifugation step. Briefly, for the glycolipid adsorption treatment samples all tubes were vortexed for approximately 5 sec immediately before sampling to ensure that non-adsorbed glycolipid-metal complexes were mixed into the solution column. After mixing, 0.1 ml of the reaction solution was aliquoted into a dilution tube of 2% trace metal grade nitric acid for analysis. This sample measures the loss of metal due to the formation of hydrophobic scums or adsorbed complexes not attributable to the subsequent filtration or centrifugation treatments.
Samples for the filtration treatment were vortexed for 5 sec, then a 0.6 ml aliquot was collected with a 1 ml syringe. A GHP acrodisc disk filter (hydrophilic polypropylene membrane, 0.45 µm pore size, 25 mm disc diameter) from Pall Life Sciences (Port Washington, New York) or PTFE disk filters (hydrophobic polytetrafluoroethylene membrane, 0.45 μm pore size, 25 mm disc diameter) from Fisher Scientific (Waltham, MA) was then placed onto the end of the syringe and approximately 0.1 ml of filtrate was collected into a dilution tube for analysis. The centrifuge sample was collected by centrifuging the remaining reaction solution at 10,000 RCF for 15 min. Approximately 0.1 ml of the supernatant was aliquoted into a dilution tube for analysis. Following collection, the metal content in all samples was analyzed at the Arizona Laboratory for Emerging Contaminants (ALEC) at the University of Arizona using inductively coupled plasma mass spectrometry.
R was determined by comparing the solution metal concentration of the treatment sample (Cnt for the glycolipid with no further treatment sample, Cf for the glycolipid and filtration sample, and Cc for the glycolipid and centrifugation sample) to the solution metal concentration of a glycolipid-free control (Ci) that underwent the same handling and processing steps. The equations for these calculations are shown below: […]

With CCCCCCCC(CC(=O)O)OC1O[C@H](CO)[C@H](O)[C@H](O)[C@H]1O (some centres unmarked) [Gal-C10] as the compound, how does the “Pb^2+ removal” value (precipitation followed by filtration, 2:1 molar ratio) read?
The value was 95.5%.

What about the “Pb^2+ maximum removal” value (precipitation without further treatment, maximum over molar ratios) of the same compound?
Its value is 38%.
